Assay results as given in ChEMBL document CHEMBL3745618, “Identification of Non-nucleoside Human Ribonucleotide Reductase Modulators” (J Med Chem, 2015).
Non-standard residues stand in square brackets, D forms with d. Residues, ends and D or L forms follow the SMILES beside them. Sar = CNCC(=O)O

Experiments:
[1] = Growth inhibition of human HCT116 cells assessed as 1-relative growth at 1 uM after 3 days by DNA dye binding assay; type: functional, HCT-116
[2] = Growth inhibition of human HCT116 cells assessed as 1-relative growth at 10 uM after 3 days by DNA dye binding assay; type: functional, HCT-116
MDA-MB-231 [3] = test: Growth inhibition of human MDA-MB-231 cells assessed as 1-relative growth at 1 uM after 3 days by DNA dye binding assay; type: functional
MDA-MB-231 [4] = test: Growth inhibition of human MDA-MB-231 cells assessed as 1-relative growth at 10 uM after 3 days by DNA dye binding assay; type: functional
[5] = target: T1, Ribonucleoside-diphosphate reductase large subunit (Homo sapiens, UniProt P23921); test: Inhibition of human ribonucleotide reductase M1 subunit expressed in Escherichia coli BL21 (DE3) using 14C-ADP as substrate by liquid scintillation counting analysis
T1 sequence (P23921 whole entry): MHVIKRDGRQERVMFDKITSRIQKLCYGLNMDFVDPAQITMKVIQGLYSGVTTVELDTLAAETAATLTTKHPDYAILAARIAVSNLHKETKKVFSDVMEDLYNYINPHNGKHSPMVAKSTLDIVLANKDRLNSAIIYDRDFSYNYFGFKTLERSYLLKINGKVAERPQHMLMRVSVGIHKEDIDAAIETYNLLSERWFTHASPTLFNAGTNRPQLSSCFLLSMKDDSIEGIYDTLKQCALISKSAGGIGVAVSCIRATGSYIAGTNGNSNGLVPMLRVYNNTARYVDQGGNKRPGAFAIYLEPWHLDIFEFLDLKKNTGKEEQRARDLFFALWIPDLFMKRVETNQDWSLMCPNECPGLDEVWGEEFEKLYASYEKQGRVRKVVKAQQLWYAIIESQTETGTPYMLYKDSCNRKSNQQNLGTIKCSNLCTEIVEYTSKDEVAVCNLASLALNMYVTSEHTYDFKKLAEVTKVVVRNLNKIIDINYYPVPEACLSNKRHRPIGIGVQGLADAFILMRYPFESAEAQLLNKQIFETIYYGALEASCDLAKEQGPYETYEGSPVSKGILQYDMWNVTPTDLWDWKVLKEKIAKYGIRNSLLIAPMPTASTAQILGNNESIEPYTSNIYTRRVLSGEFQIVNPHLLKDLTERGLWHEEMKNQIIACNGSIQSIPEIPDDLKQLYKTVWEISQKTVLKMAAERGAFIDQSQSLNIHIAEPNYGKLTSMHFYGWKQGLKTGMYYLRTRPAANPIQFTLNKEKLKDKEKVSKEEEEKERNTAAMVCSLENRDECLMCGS

MDA-MB-231 [6] = test: Potentiation of gemcitabine-induced cytotoxicity against human MDA-MB-231 assessed as effective dose of gemcitabine at 2.5 uM after 72 hrs MTT assay (reference value: 0.92 uM); type: functional

| IC50 [5] [µM] | Compound | Activity [1] | Activity [2] | Activity (MDA-MB-231 [3]) | Activity (MDA-MB-231 [4]) | ED (MDA-MB-231 [6]) [µM] |
| --- | --- | --- | --- | --- | --- | --- |
| – | CCCCCCCCCCCCCCNC(=O)[C@@H](N)CCN | 0.072 | 0.69 | 0.072 | 0.69 | – |
| – | CCC(C)(C)c1ccc(OCCCCNC(=O)c2cc(Oc3ccc([N+](=O)[O-])cc3)c3ccccc3c2O)c(C(C)(C)CC)c1 | 0.038 | – | 0.038 | 0.398 | – |
| – | CC(C)(NC(=O)CN1C(=O)c2ccccc2C1=O)C(=O)NCCCC[C@H](NC(=O)CC(O)(C(F)(F)F)C(F)(F)F)C(=O)O | 0.057 | – | 0.057 | 0.608 | – |
| – | CCCCCCCCCCCCCCCC(=O)N[C@@H](CCCCN)C(=O)N[C@@H](CCCCN)C(=O)OC | – | -0.089 | -0.219 | -0.089 | – |
| – | CCCOc1ccc(C(=O)OCCN(CC)CC)cc1NS(=O)(=O)/C=C/c1ccccc1 | -0.033 | 0.043 | -0.033 | 0.043 | – |
| – | CCOC(=O)C(NC(=O)CN[C@H]1CCCc2sccc21)C(=O)OCC | – | – | -0.199 | 0.531 | – |
| – | CNCC(=O)N[C@@H](CCCNC(=N)N)C(=O)N[C@H](C(=O)N[C@@H](Cc1ccc(O)cc1)C(=O)N[C@H](C(=O)N[C@@H](Cc1cnc[nH]1)C(=O)O)C(C)C)C(C)C (H-[Sar]RVYVH-OH) | 0.108 | 0.158 | 0.108 | 0.158 | – |
| – | CCOC(=O)C[C@@H](CC(=O)NCCN[C@H](C)c1ccc(O)c(C(=O)OC)c1)OC(C)=O | 0.098 | 0.096 | 0.098 | 0.096 | – |
| 997 | NC(=O)NO [HYDROXYUREA] | – | – | – | – | – |
| – | OC(COc1ccc(OCC(O)CN2CCN(C3c4ccccc4-c4ccccc43)CC2)cc1)CN1CCN(C2c3ccccc3-c3ccccc32)CC1 (stereo unspecified) | – | 0.88 | -0.396 | 0.88 | 0.1 |
| – | CC(NCCCCCO)c1cc(OCc2ccccc2)cc(OCc2ccccc2)c1 (stereo unspecified) | -0.076 | 0.036 | -0.076 | 0.036 | – |
